In US3930838A, “S-benzyl-N,N-disec-butylthiocarbamate and its use as a rice field herbicide and a rice growth stimulant” (priority 1970, dated 1976):

Assays:
[1] = test system: Alisma sp.; experiment: Outdoor infestation degree in rice plots (Example 15); assay type: in vivo; details: 36 days
Method: (§1) In the province of Novara, Italy, a test was performed outdoors in clay soil. For each treatment, a 600 m^2 plot provided with independent water feed was prepared. After soil working and leveling, the treatment was effected on Apr. 23, 1970, using formulations in emulsifiable oils of M3432 and of molinate, sprayed by means of mechanical devices. Only the plot treated with molinate was harrowed just after treatment in order to incorporate the product and to avoid any losses of same due to volatilization. Immediately afterwards, the plots were flooded to a water level of 10-12 cm.
(§2) A clear confirmation of the efficiency of M3432 towards Echinocloa spp. was obtained outdoors, where the test was carried out under conditions which are characteristic of Italian rice growing. The experimental conditions are described in Example 10.

[2] = test system: Echinocloa spp.; experiment: as above; assay type: in vivo; details: 2 months
Method: as §1, §2

[3] = test system: Scirpus sp.; experiment: as above; assay type: in vivo; details: 36 days
Method: as §1, §2

[4] = test system: Dactylis glomerata; experiment: Weeding activity in screening conditions (Example 12); assay type: in vivo; details: 25 days
Excerpt: (§3) Two sets of small square tanks having 11 cm. sides, filled with field earth admixed with 30% of sand, were sowed at a depth of 0.5-1 cm. with the following grass species: Echinocloa crus galli, Setaria italica, Alopecurus myosiuroides, Lolium italicum, Digitaria sanguinalis, Avena fatua, Agrostis segetum, and Dactylis glomerata. After sowing, the earth surface of the tanks was uniformly sprayed with 2.4 cc./tank of hydroacetone solutions containing, respectively, 0, 0.05, 0.10, 0.20 and 0.30% of M3432 and of molinate, respectively, in order to obtain doses thereof corresponding to 0, 1, 2, 4, and 6 kg./ha., respectively.
(§4) Only one set of small tanks was covered with a 1 cm. layer of earth just after the treatment. All of the tanks were kept in an air-conditioned chamber identical with that described in Example 7, and were watered every day. 25 days after the treatment, the final results were examined, attributing to each treatment the following scale of values: […]

[5] = test system: Setaria italica; experiment: as above; assay type: in vivo; details: 25 days
Excerpt: as §3, §4

[6] = test system: Rice plants; experiment: Open field test on rice, periodical checks of the plots (Example 10); assay type: in vivo, rice cv. RIBE; details: two months
Method: as §1
(§5) Pre-germinated cv. RIBE rice was mechanically sowed broadcast on Apr. 25, 1970.
Periodical checks were carried out on the four plots. […]

[7] = test system: Avena fatua; experiment: Weeding activity in screening conditions (Example 12); assay type: in vivo; set-up: scale not given here; details: 25 days
Excerpt: as §3, §4

[8] = test system: Alopecurus myosiuroides; experiment: as above; assay type: in vivo; set-up: scale not given here; details: 25 days
Excerpt: as §3, §4

[9] = test system: Digitaria sanguinalis; experiment: as above; assay type: in vivo; set-up: scale not given here; details: 25 days
Excerpt: as §3, §4

[10] = test system: Lolium italicum; experiment: as above; assay type: in vivo; set-up: scale not given here; details: 25 days
Excerpt: as §3, §4

[11] = test system: Agrostis segetum; experiment: as above; assay type: in vivo; set-up: scale not given here; details: 25 days
Excerpt: as §3, §4

[12] = test system: rice; experiment: Open field test on rice, biometric controls (Example 10); assay type: in vivo, rice cv. RIBE; details: 36 days
Method: as §1, §5
36 Days after the treatment, 50 rice plants were taken at random from each plot and subjected to biometric controls.

[13] = test system: Echinocloa spp.; experiment: Pre-emergence activity on Echinocloa in flooded cultures, pots (Example 13); assay type: in vivo
Method: Into a set of cylindrical pots having a 200 cm^2 internal surface, sieved rice field earth in a quantity of 1 kg. per pot was introduced. After leveling and wetting with 200 cc. of water, the earth surface of the pots was uniformly sprayed with hydroacetone solutions containing, respectively, 0, 0.2, 0.3, and 0.4% active product (a.p.). 4 Ml. of the solution were sprayed onto each pot, so that the amount of active product in a set of four pots was 0, 4, 6, and 8 kg./ha., respectively. Immediately after spraying, each pot was filled with water to a level of 7 cm. over the soil surface. Thereafter, the sowing was carried out at the rate of 15 pre-germinated rice seeds per pot. Three repetitions were performed for each treatment. The pots were kept in an air-conditioned atmosphere with a daily temperature variation between 10° and 25°C and a 14 hour per day light period. […]
The same method described in Example 7 was adopted, the only variations being the doses (0, 0.5, 1, 2 and 4 kg./ha.). the type of formulation and the sowing of Echinocloa spp. (25 slightly pre-germinated seeds per pot) instead of rice.

[14] = Treated surface covered with 1 cm earth layer, 2 kg./ha.
[15] = Treated surface covered with 1 cm earth layer, 4 kg./ha.
[16] = Treated surface covered with 1 cm earth layer, 6 kg./ha.
[17] = Test No. 1, hydroacetone solution, 2 kg./ha., 22 days
[18] = Test No. 1, hydroacetone solution, 4 kg./ha., 22 days
[19] = Test No. 2, hydroacetone solution, 0.5 kg./ha., 21 days
[20] = Test No. 2, hydroacetone solution, 1 kg./ha., 21 days
[21] = Test No. 2, hydroacetone solution, 2 kg./ha., 21 days
[22] = Test No. 3, 50% emulsifiable oil, 2 kg./ha., 27 days
[23] = Test No. 3, 50% emulsifiable oil, 4 kg./ha., 27 days
[24] = Test No. 3, hydroacetone solution, 2 kg./ha., 27 days
[25] = Test No. 3, hydroacetone solution, 4 kg./ha., 27 days

Compound: CCC(C)N(C(=O)SCc1ccccc1)C(C)CC (centres unmarked) [M3432, S-benzyl-N,N-disec.butylthiocarbamate]
- Infestation degree ([1]; 4 kg./ha.): low (low = 0.5-1 plants per m^2)
- Infestation degree ([1]; 6 kg./ha.): low (low = 0.5-1 plants per m^2)
- Infestation degree, plants per 10 square meters ([2]; 4 kg./ha.): 0.25 no.
- Infestation degree, plants per 10 square meters ([2]; 6 kg./ha.): 0.33 no.
- Infestation degree ([3]; 4 kg./ha.): low (low = 0.5-1 plants per m^2)
- Infestation degree ([3]; 6 kg./ha.): low (low = 0.5-1 plants per m^2)
- Weeding activity ([4]; Surface, 1 kg./ha.): 3/4
- Weeding activity ([4]; Surface, 2 kg./ha.): 4
- Weeding activity ([4]; Surface, 4 kg./ha.): 4/3
- Weeding activity ([4]; Surface, 6 kg./ha.): 4
- Weeding activity [4, 14]: 4
- Weeding activity [4, 15]: 4
- Weeding activity [4, 16]: 4
- Weeding activity ([5]; Surface, 1 kg./ha.): 3
- Weeding activity ([5]; Surface, 2 kg./ha.): 3
- Weeding activity ([5]; Surface, 4 kg./ha.): 4/3
- Weeding activity ([5]; Surface, 6 kg./ha.): 4/3
- Weeding activity [5, 14]: 3/4
- Weeding activity [5, 15]: 4/3
- Weeding activity [5, 16]: 4
- Average height ([6]; 4 kg./ha.): about 60 cm.
- Average height ([6]; 6 kg./ha.): about 60 cm.
- Weeding activity ([7]; Surface, 1 kg./ha.): 2/3
- Weeding activity ([7]; Surface, 2 kg./ha.): 3
- Weeding activity ([7]; Surface, 4 kg./ha.): 3
- Weeding activity ([7]; Surface, 6 kg./ha.): 3
- Weeding activity [7, 14]: 4
- Weeding activity [7, 15]: 4
- Weeding activity [7, 16]: 4
- Weeding activity ([8]; Surface, 1 kg./ha.): 1/2
- Weeding activity ([8]; Surface, 2 kg./ha.): 2
- Weeding activity ([8]; Surface, 4 kg./ha.): 3
- Weeding activity ([8]; Surface, 6 kg./ha.): 4
- Weeding activity [8, 14]: 4
- Weeding activity [8, 15]: 4
- Weeding activity [8, 16]: 4
- Weeding activity ([9]; Surface, 1 kg./ha.): 3
- Weeding activity ([9]; Surface, 2 kg./ha.): 4
- Weeding activity ([9]; Surface, 4 kg./ha.): 4
- Weeding activity ([9]; Surface, 6 kg./ha.): 4
- Weeding activity [9, 14]: 4
- Weeding activity [9, 15]: 4
- Weeding activity [9, 16]: 4
- Weeding activity ([10]; Surface, 1 kg./ha.): 4
- Weeding activity ([10]; Surface, 2 kg./ha.): 4
- Weeding activity ([10]; Surface, 4 kg./ha.): 4
- Weeding activity ([10]; Surface, 6 kg./ha.): 4
- Weeding activity [10, 14]: 4
- Weeding activity [10, 15]: 4
- Weeding activity [10, 16]: 4
- Weeding activity ([11]; Surface, 1 kg./ha.): 4
- Weeding activity ([11]; Surface, 2 kg./ha.): 4
- Weeding activity ([11]; Surface, 6 kg./ha.): 4
- Weeding activity [11, 14]: 4
- Weeding activity [11, 15]: 4
- Weeding activity [11, 16]: 4
- Main root ([12]; 4 kg./ha.): 9.29 cm.
- Roots, average weight per plant on dry basis ([12]; 4 kg./ha.): 2.431 g
- Secondary roots ([12]; 4 kg./ha.): 9.64 no.
- Shoot ([12]; 4 kg./ha.): 29.22 cm.
- Shoot, average weight per plant on dry basis ([12]; 4 kg./ha.): 4.073 g
- Total, average weight per plant on dry basis ([12]; 4 kg./ha.): 6.504 g
- Main root ([12]; 6 kg./ha.): 10.19 cm.
- Roots, average weight per plant on dry basis ([12]; 6 kg./ha.): 3.123 g
- Secondary roots ([12]; 6 kg./ha.): 10.42 no.
- Shoot ([12]; 6 kg./ha.): 30.17 cm.
- Shoot, average weight per plant on dry basis ([12]; 6 kg./ha.): 4.209 g
- Total, average weight per plant on dry basis ([12]; 6 kg./ha.): 7.341 g
- Main root [13, 17]: 0 cm.
- Shoot [13, 17]: 0 cm.
- Stand (Sprouted plants) [13, 17]: 0%
- Main root [13, 18]: 0 cm.
- Shoot [13, 18]: 0 cm.
- Stand (Sprouted plants) [13, 18]: 0%
- Main root [13, 19]: 3.28 cm.
- Shoot [13, 19]: 8.81 cm.
- Stand [13, 19]: 62%
- Main root [13, 20]: 0 cm.
- Shoot [13, 20]: 0 cm.
- Stand [13, 20]: 0%
- Main root [13, 21]: 0 cm.
- Shoot [13, 21]: 0 cm.
- Stand [13, 21]: 0%
- Main root [13, 22]: 0 cm.
- Shoot [13, 22]: 0 cm.
- Stand [13, 22]: 0%
- Main root [13, 23]: 0 cm.
- Shoot [13, 23]: 0 cm.
- Stand [13, 23]: 0%
- Main root [13, 24]: 0 cm.
- Shoot [13, 24]: 0 cm.
- Stand [13, 24]: 0%
- Main root [13, 25]: 0 cm.
- Shoot [13, 25]: 0 cm.
- Stand [13, 25]: 0%
